Patent publication EP1607399B1 (priority 2000, dated 2001)

System: RPMI 8322 human melanoma cells
Type: cell-based
Conditions: read-out: µM to 50% cell viability

Structure (SMILES): Cc1ccc(S(=O)(=O)NCCOP(=O)(N(CCCl)CCCl)N(CCCl)CCCl)cc1 [Compound 23]
- IC50: > 500 µM
